# Measured values: ChEMBL document CHEMBL1159357, “Labdane and kaurane diterpenoids from Plectranthus fruticosus” (2003)
# Active and inactive are the calls of the source. The calls are words filed in the database; no cut-off is given here.
# Test system: Staphylococcus aureus
# Test: Antimicrobial activity against Staphylococcus aureus
# Format: functional
MIC [µg/mL],Structure (SMILES),Activity
31.2,C[C@@]12CCC[C@@](C)(C(=O)O)[C@H]1CC[C@@]13C[C@H](CC[C@@H]21)[C@]1(C)O[C@H]31,–
–,C=C1C[C@@]23CC[C@H]4[C@@](C)(CCC[C@@]4(C)C(=O)OC)[C@@H]2C[C@H](OC(C)=O)[C@H]1C3,inactive
–,C=C/C(C)=C\C[C@@H]1C(=C)CC[C@@H]2C(C)(C)C[C@@H](OC(C)=O)C[C@@]12C,inactive
–,COC(=O)[C@]1(C)CCC[C@@]2(C)[C@@H]3CC[C@H]4C[C@@]3(CC[C@@H]21)[C@H]1O[C@@]41C,inactive
–,C[C@@]1(CO)CCC[C@]2(C)[C@@H]1CC[C@@]13C[C@H](CC[C@@H]21)[C@]1(C)O[C@H]31,inactive
–,COC(=O)[C@]1(C)CCC[C@@]2(C)[C@@H]3C[C@H](OC(C)=O)[C@H]4C[C@]3(C=C4C)CC[C@@H]21,inactive
–,C=C/C(C)=C/C[C@H]1C(=C)CC[C@H]2C(C)(C)[C@@H](OC(C)=O)[C@H](O)C[C@]12C,inactive
